# Experimental data: patent EP0845210A1, “New herbicidal compositions” (RHONE-POULENC AGRICULTURE LTD., priority 1994, dated 1996)
# What was measured:
# Assay type in all cases: in vivo
# Abutilon theophrasti [1] = test: Procedure B: pre-emergence field trial (research farm in Brazil), visual assessment 36 or 40 days from sowing
# Protocol: (§1) The experiments were carried out pre-emergence of the weed species at • (i) a research farm in Brazil with Compounds B and C (each formulated as a wettable powder) and metolachlor, (formulated as a suspension concentrate); and • (ii) in research farms in the Mid West corn belt of the United States with compound D (formulated as a wettable powder) and metolachlor (formulated as a suspension concentrate).
# (§2) A solution of the two active ingredients (a.i.) was mixed for one hour and applied at a spray volume of 231 litres/hectare to a 3 metre by 5 metre test plot comprising the weed species which were sown 2 days earlier. 3 replicates were performed. A control plot was sprayed with a solution not containing test compound. Visual assessment of phytotoxicity was made after 36 or 40 days from sowing each weed species based on a comparison with the control plot.
# (§3) The tables below show the observed percentage control of the weed species by each combination, with the figure in brackets representing the predicted value using the Limpel formula. The dose rates are in grammes per hectare. Table E1
# Helianthus annuus = test: Procedure D: pre-emergence field trial (Volga, Brookings), visual assessment about 26 days after treatment
# Protocol: (§4) The following experiments were carried out pre-emergence of the weed species. Compound A, formulated as a wettable dispersible granule as described in Example 1 herebelow (750g per kilogram) and each acetochlor (used as the commercially available formulation "Harness" (trade mark), an emulsifiable concentrate containing 960g of acetochlor per kilogram, and which also contains the safening agent flurazole, metolachlor (used as the commercially available formulation "Duelor" (trade mark), an emulsifiable concentrate emulsifiable concentrate containing 960g of metolachlor per kilogram), alachlor (used as the commercially available formulation "Lasso" (trade mark), an emulsifiable concentrate containing 480g of alachlor per kilogram) and dimethenamid (used as the commercially available formulation "Frontiere" (trade mark), a flowable containing 900g/l active ingerident) were dissolved in water and sprayed at a volume rate of 187 litres/hectare on various test plots (10 square meters in area) either alone or in mixtures. The soil was a clay-loam, with a pH of 7, the experiments being conducted in June in Volga, Brookings, U.S.A. The various weed and crop species were drill sown and the various compositions were applied on the same day after drilling. Three replicates were performed and the efficacy of the various mixtures were determined by visual assessment of the percentage phytotoxicity in comparison with an untreated control. Assessment was made about 26 days after treatment. In the Tables which follow the dose is expressed in grammes per hectare and the figures in brackets represent the expected results according to the Colby formula.
# Panicum miliaceum = test: as above
# Protocol: as §4
# Abutilon theophrasti [2] = test: as above
# Protocol: as §4
# Setaria faberii = test: Procedure B: pre-emergence field trial (Mid West corn belt research farms), visual assessment 36 or 40 days from sowing
# Protocol: as §1, §2, §3
# Amaranthus retroflexus [3] = test: as above
# Protocol: as §1, §2, §3
# Setaria viridis = test: Procedure A: pre-emergence glasshouse pot test, growth reduction assessed two weeks after treatment
# Description: (§5) Seed of the various species of broad-leaf or grass weeds were sown in unsterilised clay loam soil in 7 centimetre by 7 centimetre plastic plant pots. The pots were watered and allowed to drain. The soil surface was then sprayed with ranges of concentrations of either the individual herbicide or mixtures of two herbicides in various proportions, dissolved in a 50:50 by volume solution of acetone and water, using a track sprayer set to deliver the equivalent of 290 l/ha. All herbicides were used as unformulated technical materials except dimethenamid, which was used as the commercial formulation "Frontiere" (trade mark), a flowable containing 900g/l active ingredient; and alachlor, which was used as "Lasso" (trade mark), an emulsifiable concentrate formulation containing 480g/l active ingredient.
# (§6) Treated pots were placed at random in four replicate blocks per treatment for each plant species. The pots were held, in a glasshouse, standing on moist capillary matting, under lights and with overhead watering twice daily.
# (§7) Two weeks after treatment the percent reduction in plant growth, compared to an untreated control, was assessed.
# (§8) Mean percent reduction in plant growth was calculated for each treatment. Dose/mean response was plotted on Log concentration/Probability graph paper, and lines fitted by eye. For herbicide mixtures a dose/response line for the first herbicide was drawn for each dose rate of the second herbicide and a dose/response line for the second herbicide was drawn for each dose rate of the first herbicide. The doses representing a 90% reduction in plant growth (LD90's) were read from these lines and plotted on graphs whose axes were dose rates of the two herbicides. The line joining these points is an Isobole i.e. a line joining points (mixtures) of equal activity, as described by P.M.L. Tammes, Neth. J. Plant Path. 70 (1964) : 73-80. A line was also drawn joining the LD90's of the individual components of the mixture. This line represents the theoretical isobole if the effect of the two components is additive i.e. there is no interaction between them. Isoboles falling below this line indicate synergy between the components while lines lying above it indicate antagonism.
# (§9) In the tables that follow 'dose' represents the dose rate in grammes per hectare of the active ingredient used; and the figures for the weed control are percentages reduction in growth when compared with the untreated controls.
# Amaranthus retroflexus [4] = test: as above
# Description: as §5, §6, §7, §8, §9
# maize (Zea mays) = test: Procedure D: pre-emergence field trial (Volga, Brookings), crop phytotoxicity about 26 days after treatment
# Protocol: as §4
# Echinochloa crus-galli = test: Procedure A: pre-emergence glasshouse pot test, growth reduction assessed two weeks after treatment
# Description: as §5, §6, §7, §8, §9
# Digitaria sanguinalis = test: as above
# Description: as §5, §6, §7, §8, §9
# [5] = metolachlor 480 g/ha alone, 1st Research Farm
# [6] = metolachlor 480 g/ha alone, 2nd Research Farm
# [7] = metolachlor 480 g/ha alone, 3rd Research Farm
# [8] = acetochlor 480 g/ha alone (Harness, contains safener flurazole)
# [9] = D 37.5 g/ha alone, 1st Research Farm
# [10] = D 37.5 g/ha alone, 2nd Research Farm
# [11] = D 37.5 g/ha alone, 3rd Research Farm
smiles,measurement,setting,value
"CS(=O)(=O)c1ccc(C(=O)c2cnoc2C2CC2)c(Cl)c1 [Compound C, 4-(2-chloro-4-methylsulphonyl)benzoyl-5-cyclopropylisoxazole]",observed percentage control of the weed species,Abutilon theophrasti [1]; C 50 g/ha alone,73%
"CCc1cccc(C)c1N(C(=O)CCl)C(C)COC (stereo not drawn) [Metolachlor, 2-chloro-6'-ethyl-N-(2-methoxy-1-methylethyl)acet-o-toluidide, reference compound]",percentage phytotoxicity,Helianthus annuus; metolachlor 480 g/ha alone,3%
same,percentage phytotoxicity,Panicum miliaceum; metolachlor 480 g/ha alone,52%
same,percentage phytotoxicity,Abutilon theophrasti [2]; metolachlor 480 g/ha alone,10%
same,observed percentage control of the weed species,Setaria faberii; [5],91%
same,observed percentage control of the weed species,Setaria faberii; [6],93%
same,observed percentage control of the weed species,Setaria faberii; [7],84%
same,observed percentage control of the weed species,Amaranthus retroflexus [3]; [5],38%
same,observed percentage control of the weed species,Amaranthus retroflexus [3]; [6],78%
same,observed percentage control of the weed species,Amaranthus retroflexus [3]; [7],91%
same,observed percentage control of the weed species,Abutilon theophrasti [1]; metolachlor 1000 g/ha alone,0%
same,percent reduction in plant growth,Setaria viridis; metolachlor 2 g/ha alone,5%
same,percent reduction in plant growth,Setaria viridis; metolachlor 4 g/ha alone,22.5%
same,percent reduction in plant growth,Setaria viridis; metolachlor 8 g/ha alone,38.75%
same,percent reduction in plant growth,Setaria viridis; metolachlor 16 g/ha alone,61.25%
same,percent reduction in plant growth,Setaria viridis; metolachlor 32 g/ha alone,87.5%
same,percent reduction in plant growth,Setaria viridis; metolachlor 64 g/ha alone,98%
same,percent reduction in plant growth,Amaranthus retroflexus [4]; metolachlor 31.25 g/ha alone,46.25%
same,percent reduction in plant growth,Amaranthus retroflexus [4]; metolachlor 62.5 g/ha alone,53.75%
same,percent reduction in plant growth,Amaranthus retroflexus [4]; metolachlor 125 g/ha alone,35%
same,percent reduction in plant growth,Amaranthus retroflexus [4]; metolachlor 250 g/ha alone,85%
same,percent reduction in plant growth,Amaranthus retroflexus [4]; metolachlor 500 g/ha alone,95%
same,percentage phytotoxicity,maize (Zea mays); metolachlor 480 g/ha alone,0%
"CS(=O)(=O)c1ccc(C(=O)c2cnoc2C2CC2)c(C(F)(F)F)c1 [Compound B, 5-cyclopropyl-4-(4-methylsulphonyl-2-trifluoromethyl)benzoylisoxazole]",observed percentage control of the weed species,Abutilon theophrasti [1]; B 50 g/ha alone,75%
"CCOCN(C(=O)CCl)c1c(C)cccc1CC [Acetochlor, 2-chloro-N-ethoxymethyl-6'-ethylacet-o-toluidide, reference compound]",percentage phytotoxicity,Helianthus annuus; [8],10%
same,percentage phytotoxicity,Panicum miliaceum; [8],72%
same,percentage phytotoxicity,Abutilon theophrasti [2]; [8],35%
same,percent reduction in plant growth,Echinochloa crus-galli; acetochlor 3.75 g/ha alone,12.5%
same,percent reduction in plant growth,Echinochloa crus-galli; acetochlor 7.5 g/ha alone,36.25%
same,percent reduction in plant growth,Echinochloa crus-galli; acetochlor 15 g/ha alone,55%
same,percent reduction in plant growth,Echinochloa crus-galli; acetochlor 30 g/ha alone,88.75%
same,percent reduction in plant growth,Echinochloa crus-galli; acetochlor 60 g/ha alone,98.75%
same,percent reduction in plant growth,Echinochloa crus-galli; acetochlor 120 g/ha alone,98.75%
same,percent reduction in plant growth,Echinochloa crus-galli; acetochlor 240 g/ha alone,100%
same,percent reduction in plant growth,Digitaria sanguinalis; acetochlor 3.75 g/ha alone,0%
same,percent reduction in plant growth,Digitaria sanguinalis; acetochlor 7.5 g/ha alone,0%
same,percent reduction in plant growth,Digitaria sanguinalis; acetochlor 15 g/ha alone,7.5%
same,percent reduction in plant growth,Digitaria sanguinalis; acetochlor 30 g/ha alone,32.5%
same,percent reduction in plant growth,Digitaria sanguinalis; acetochlor 60 g/ha alone,85%
same,percent reduction in plant growth,Digitaria sanguinalis; acetochlor 120 g/ha alone,100%
same,percent reduction in plant growth,Digitaria sanguinalis; acetochlor 240 g/ha alone,98.75%
same,percentage phytotoxicity,maize (Zea mays); [8],0%
"COCC(C)N(C(=O)CCl)c1c(C)csc1C (stereo not drawn) [Dimethenamid, 2-chloro-N-(2,4-dimethyl-3-thienyl)-N-(2-methoxy-1-methyl)ethyl-acetamide, reference compound]",percentage phytotoxicity,Helianthus annuus; dimethenamid 200 g/ha alone,3%
same,percentage phytotoxicity,Panicum miliaceum; dimethenamid 200 g/ha alone,27%
same,percentage phytotoxicity,Abutilon theophrasti [2]; dimethenamid 200 g/ha alone,12%
same,percent reduction in plant growth,Echinochloa crus-galli; dimethenamid 4 g/ha alone,17.5%
same,percent reduction in plant growth,Echinochloa crus-galli; dimethenamid 8 g/ha alone,38.75%
same,percent reduction in plant growth,Echinochloa crus-galli; dimethenamid 16 g/ha alone,81.25%
same,percent reduction in plant growth,Echinochloa crus-galli; dimethenamid 32 g/ha alone,93.5%
same,percent reduction in plant growth,Echinochloa crus-galli; dimethenamid 64 g/ha alone,97.5%
same,percent reduction in plant growth,Echinochloa crus-galli; dimethenamid 128 g/ha alone,100%
same,percent reduction in plant growth,Digitaria sanguinalis; dimethenamid 4 g/ha alone,16.25%
same,percent reduction in plant growth,Digitaria sanguinalis; dimethenamid 8 g/ha alone,15%
same,percent reduction in plant growth,Digitaria sanguinalis; dimethenamid 16 g/ha alone,77.5%
same,percent reduction in plant growth,Digitaria sanguinalis; dimethenamid 32 g/ha alone,89.75%
same,percent reduction in plant growth,Digitaria sanguinalis; dimethenamid 64 g/ha alone,98.25%
same,percent reduction in plant growth,Digitaria sanguinalis; dimethenamid 128 g/ha alone,92.5%
same,percent reduction in plant growth,Digitaria sanguinalis; dimethenamid 256 g/ha alone,98.75%
same,percentage phytotoxicity,maize (Zea mays); dimethenamid 200 g/ha alone,0%
"CCc1cccc(CC)c1N(COC)C(=O)CCl [Alachlor, 2-chloro-2',6'-diethyl-N-methoxymethylacetanilide, reference compound]",percentage phytotoxicity,Helianthus annuus; alachlor 480 g/ha alone,3%
same,percentage phytotoxicity,Panicum miliaceum; alachlor 480 g/ha alone,53%
same,percentage phytotoxicity,Abutilon theophrasti [2]; alachlor 480 g/ha alone,20%
same,percent reduction in plant growth,Echinochloa crus-galli; alachlor 4 g/ha alone,18.75%
same,percent reduction in plant growth,Echinochloa crus-galli; alachlor 8 g/ha alone,5%
same,percent reduction in plant growth,Echinochloa crus-galli; alachlor 16 g/ha alone,12.5%
same,percent reduction in plant growth,Echinochloa crus-galli; alachlor 32 g/ha alone,46.25%
same,percent reduction in plant growth,Echinochloa crus-galli; alachlor 64 g/ha alone,91.25%
same,percent reduction in plant growth,Echinochloa crus-galli; alachlor 128 g/ha alone,98.75%
same,percent reduction in plant growth,Digitaria sanguinalis; alachlor 4 g/ha alone,0%
same,percent reduction in plant growth,Digitaria sanguinalis; alachlor 8 g/ha alone,25%
same,percent reduction in plant growth,Digitaria sanguinalis; alachlor 16 g/ha alone,6.25%
same,percent reduction in plant growth,Digitaria sanguinalis; alachlor 32 g/ha alone,37.5%
same,percent reduction in plant growth,Digitaria sanguinalis; alachlor 64 g/ha alone,75%
same,percent reduction in plant growth,Digitaria sanguinalis; alachlor 128 g/ha alone,95%
same,percentage phytotoxicity,maize (Zea mays); alachlor 480 g/ha alone,0%
"CS(=O)(=O)c1cc(Cl)ccc1C(=O)c1cnoc1C1CC1 [Compound D, 4-(4-chlor-2-methylsulphonyl)benzoyl-5-cyclopropylisoxazole]",observed percentage control of the weed species,Setaria faberii; [9],22%
same,observed percentage control of the weed species,Setaria faberii; [10],62%
same,observed percentage control of the weed species,Setaria faberii; [11],32%
same,observed percentage control of the weed species,Amaranthus retroflexus [3]; [9],38%
same,observed percentage control of the weed species,Amaranthus retroflexus [3]; [10],10%
same,observed percentage control of the weed species,Amaranthus retroflexus [3]; [11],10%
